Measurements published in patent publication US7786141B2 (Vertex Pharmaceuticals Incorporated, priority 2004, dated 2010).
Read-outs that look alike come from different tables or passages of the source.

Tests used:
M1 muscarinic receptor = molecular target: T1, M1 muscarinic receptor (Homo sapiens, UniProt P11229); assay: Functional mobilization of intracellular calcium (FLIPR) in M1-CHO cells; type: cell-based
T1 construct: expressed in transfected cells; host or cells: CHO (M1-CHO)
T1 sequence (P11229 1-460): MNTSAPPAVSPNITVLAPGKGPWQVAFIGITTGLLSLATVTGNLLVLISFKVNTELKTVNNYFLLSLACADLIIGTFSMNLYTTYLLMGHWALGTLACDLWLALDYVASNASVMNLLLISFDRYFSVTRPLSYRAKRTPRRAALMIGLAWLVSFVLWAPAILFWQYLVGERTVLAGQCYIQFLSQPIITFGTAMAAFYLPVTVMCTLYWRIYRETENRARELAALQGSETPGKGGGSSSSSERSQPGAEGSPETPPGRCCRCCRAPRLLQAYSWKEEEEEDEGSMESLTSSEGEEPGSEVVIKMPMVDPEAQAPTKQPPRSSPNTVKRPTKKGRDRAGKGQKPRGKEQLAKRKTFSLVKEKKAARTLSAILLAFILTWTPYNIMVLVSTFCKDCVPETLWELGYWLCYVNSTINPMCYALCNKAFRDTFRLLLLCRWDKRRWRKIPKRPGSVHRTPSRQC
In short: (§1)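 CHO cells stably expressing human M1 or M4 receptor were loaded with Fluo-3 AM (or Calcium 3 dye) in Hepes-buffered saline, pH 7.4, with 1 mM probenecid, 0.5% final DMSO. Agonist mode: compound added directly; antagonist mode: 15 min preincubation before carbachol at EC80. FLIPR fluorescence recorded 60 sec.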

M4 muscarinic receptor = molecular target: T2, M4 muscarinic receptor (Homo sapiens, UniProt P08173); assay: Functional mobilization of intracellular calcium (FLIPR) in M4-CHO cells; type: cell-based
T2 construct: expressed in transfected cells; host or cells: CHO (M4-CHO)
T2 sequence (P08173 1-479): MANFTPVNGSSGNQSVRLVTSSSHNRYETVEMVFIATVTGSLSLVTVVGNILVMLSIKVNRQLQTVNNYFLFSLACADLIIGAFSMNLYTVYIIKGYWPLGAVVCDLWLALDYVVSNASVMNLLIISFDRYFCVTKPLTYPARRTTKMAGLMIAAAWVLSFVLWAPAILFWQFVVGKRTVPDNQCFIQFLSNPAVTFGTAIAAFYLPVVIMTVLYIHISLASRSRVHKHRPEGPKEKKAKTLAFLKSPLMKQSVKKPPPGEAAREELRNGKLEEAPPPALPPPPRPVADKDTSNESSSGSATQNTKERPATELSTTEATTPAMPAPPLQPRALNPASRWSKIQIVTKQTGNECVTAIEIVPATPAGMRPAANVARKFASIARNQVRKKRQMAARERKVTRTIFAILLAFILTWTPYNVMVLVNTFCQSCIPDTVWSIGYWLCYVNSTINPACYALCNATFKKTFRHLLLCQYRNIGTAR
In short: as §1

[1] = M1 receptor, calcium mobilization
[2] = M1 receptor, calcium mobilization, read-out: M1 Efficacy
[3] = M4 receptor, calcium mobilization
[4] = M4 receptor, calcium mobilization, read-out: M4 Efficacy
[5] = Table 4, 100% efficacy is the maximum response obtained with the Carbachol control
[6] = Table 4, modulating M1 receptor
[7] = Table 4, modulating M4 receptor
[8] = M1-CHO cells, calcium mobilization (FLIPR)
[9] = M1-CHO cells, calcium mobilization (FLIPR), read-out: M1 Efficacy
[10] = M4-CHO cells, calcium mobilization (FLIPR)
[11] = M4-CHO cells, calcium mobilization (FLIPR), read-out: M4 Efficacy

SMILES	M1 Activity (M1 muscarinic receptor; [1])	Emax (M1 muscarinic receptor; [2])	M4 Activity (M4 muscarinic receptor; [3])	Emax (M4 muscarinic receptor; [4])	further results
CCOC(=O)N1CCC(CN2CCC3(CC2)CN(C(C)=O)c2ccc(OC)cc23)CC1 [compound 237]	xxx (activity was measured to be less than 0.1 μM)	< 65%	xx (activity was measured to be between 0.1 μM and 1.0 μM)	< 65%	–
CC(=O)NC1CCC2(CCN(CCC3CCN(C(=O)OCC(C)C)CC3)CC2)c2ccccc21 (centres unmarked) [compound 962]	–	–	–	–	Emax (M1 muscarinic receptor; [5]): < 25%; M1 Activity (M1 muscarinic receptor; Table 4, M1 receptor, calcium mobilization (FLIPR)): x (activity was measured to be greater than 5.0 μM); Emax (M4 muscarinic receptor; [5]): < 25%; M4 Activity (M4 muscarinic receptor; Table 4, M4 receptor, calcium mobilization (FLIPR)): x (activity was measured to be greater than 5.0 μM)
C[C@@H](O)CC(=O)N1CCC(N2CCC3(CC2)CN(C(=O)N(C)C)c2ccc(F)cc23)CC1 [compound 463]	–	–	–	–	Emax (M1 muscarinic receptor; [5]): 25 to 100%; M1 Activity (M1 muscarinic receptor; [6]): x (activity was measured to be greater than 5.0 μM); Emax (M4 muscarinic receptor; [5]): < 25%; M4 Activity (M4 muscarinic receptor; [7]): x (activity was measured to be greater than 5.0 μM)
CC#CCOC(=O)N1CC2(CCN(C3CCN(C(=O)OCC)CC3)CC2)c2cc(F)ccc21 [compound 346]	xxx (activity was measured to be less than 0.1 μM)	< 65%	x (activity was measured to be greater than 1.0 μM)	< 65%	–
CCOC(=O)N1CCC(N2CCC3(CC2)CN(C2CCC(=O)CC2)c2ccccc23)CC1 [compound 472]	–	–	–	–	Emax (M1 muscarinic receptor; [5]): > 100%; M1 Activity (M1 muscarinic receptor; [6]): xxx (activity was measured to be less than 2.0 μM); Emax (M4 muscarinic receptor; [5]): 25 to 100%; M4 Activity (M4 muscarinic receptor; [7]): xxx (activity was measured to be less than 2.0 μM)
CS(=O)(=O)N[C@@H]1CC2(CCN(C[C@H]3C[C@H]4CC[C@H]3C4)CC2)c2ccccc21 [compound 227]	xxx (activity was measured to be less than 0.1 μM)	> 85%	xxx (activity was measured to be less than 0.1 μM)	> 85%	–
COC(=O)N1CCC(CN2CCC3(CC2)CN(C(C)=O)c2ccc(F)cc23)CC1 [compound 129]	xxx (activity was measured to be less than 0.1 μM)	65 to 85%	x (activity was measured to be greater than 1.0 μM)	< 65%	–
Cc1ccc2c(c1)C1(CCN(CC3CC4CCC3O4)CC1)CN2 (centres unmarked) [compound 372]	xxx (activity was measured to be less than 0.1 μM)	65 to 85%	xx (activity was measured to be between 0.1 μM and 1.0 μM)	> 85%	–
COC(=O)N1CCC(CN2CCC3(CC2)CN(C(C)=O)c2ccc(C)cc23)CC1 [compound 423]	–	–	–	–	EC50 (M1 muscarinic receptor; [8]): 100 to 1000 nM; Emax (M1 muscarinic receptor; [9]): < 65%; EC50 (M4 muscarinic receptor; [10]): > 1000 nM; Emax (M4 muscarinic receptor; [11]): < 65%
CCOC(=O)N1C2CCC1CC(N1CCC3(CC1)CN(C(C)=O)c1c(F)cccc13)C2 (centres unmarked) [compound 322]	xx (activity was measured to be between 0.1 μM and 1.0 μM)	< 65%	xxx (activity was measured to be less than 0.1 μM)	> 85%	–
CCOC(=O)N1CCC(CN2CCC3(CC2)CN(C(C)=O)c2ccc(F)cc23)CC1 [compound 60]	xx (activity was measured to be between 0.1 μM and 1.0 μM)	65 to 85%	x (activity was measured to be greater than 1.0 μM)	65 to 85%	–
CCOC(=O)N1CCC(N2CCC3(CC2)CN(C(=O)c2ccc4c(c2)OCO4)c2ccc(F)cc23)CC1 [compound 401]	–	–	–	–	EC50 (M1 muscarinic receptor; [8]): < 100 nM; Emax (M1 muscarinic receptor; [9]): 65 to 85%; EC50 (M4 muscarinic receptor; [10]): > 1000 nM; Emax (M4 muscarinic receptor; [11]): < 65%
CCCOC(=O)N1C2CCC1CC(N1CCC3(CC1)CN(C(=O)OCCOC)c1ccc(F)cc13)C2 (centres unmarked) [compound 405]	–	–	–	–	EC50 (M1 muscarinic receptor; [8]): 100 to 1000 nM; Emax (M1 muscarinic receptor; [9]): < 65%; EC50 (M4 muscarinic receptor; [10]): > 1000 nM; Emax (M4 muscarinic receptor; [11]): < 65%
Fc1ccc2c(c1)C1(CCN(C3CCCCC3)CC1)CO2 [compound 152]	xx (activity was measured to be between 0.1 μM and 1.0 μM)	65 to 85%	x (activity was measured to be greater than 1.0 μM)	> 85%	–
